Laboratory results taken from patent US20250214986A1, “P2X3 INHIBITOR COMPOUND, SALT THEREOF, POLYMORPH THEREOF AND USE THEREOF” (HUMANWELL HEATHCARE (GROUP) CO., LTD., priority 2022, published 2025).
Values after ≈ are worked out from the molar mass of the structure shown.

Assays:
[1] = Pharmacokinetic assay in mice; format: in vivo, male ICR mice; conditions: for AUC(0-t) / Cmax / Tmax / half-life: male, ICR, mouse, plasma, mice, oral intragastric administration, 10 mg/kg; for half-life: read-out: T½ (converted)
Method: Pharmacokinetic assay in mice was performed, wherein the mice used were male ICR mice weighing 20-25 g and fasted overnight. 3 mice were taken and given the compound by oral intragastric administration at 10 mg/kg, and blood was collected before administration and at 15 min, 30 min, 1 h, 2 h, 4 h, 8 h, and 24 h after administration. The blood samples were centrifuged at 6800 g at 2-8° C. for 6 min, and plasma was collected and stored at −80° C. […] The mixture was vortexed for 1 min and then centrifuged at 13000 rpm at 4° C. for 10 min. The supernatant was taken, and 3 times its amount of water was added for mixing. A proper amount of the resulting mixture was taken for LC-MS/MS analysis. The major pharmacokinetic parameters were analyzed using a non-compartmental model in the WinNonlin 7.0 software.

[2] = system: citric acid/ATP-stimulated cough model; test: Cough efficacy assay of ATP/citric acid in guinea pigs; format: in vivo; conditions: for Cough inhibition rate vs. vehicle (%) / Mean number of coughs within 15 min: ATP/citric acid nebulization, intranasal instillation
Method: (§1) Before enrollment, the animals were acclimatized for 3-7 days. Once their body weight reached the standard (300-400 g), they were numbered and randomly grouped. 0.25-24 h before the start of the cough assessment, the compound or excipient was administered to the guinea pigs via intranasal instillation. The dose range for the administration of the test substance was 0.17-1.5 mg/kg. During the cough assessment, after the animals were acclimated in a whole-body plethysmography box, they were given ATP nebulization, and after a few minutes, they were given citric acid nebulization. The number of coughs and the cough latency of the animals were recorded within 15 min from the start of the citric acid nebulization. The one-way ANOVA method was used to analyze and compare the data of the groups. Statistical analysis results with p<0.05 were considered to indicate significant differences. Pairwise comparisons were performed using the t-test method to assess differences.

taste of SD rats = test: Taste assay in rats (water vs. aqueous quinine intake); format: in vivo; conditions: 30 mg/kg, i.p., 0.3 mM aqueous quinine, 15 min intake half an hour after administration
Method: After 3 days of overnight water-deprivation training, SD rats were subjected to administration with the compound. Half an hour after administration, each animal was given one bottle of water and one bottle of 0.3 mM aqueous quinine solution. The water bottles were removed after 15 min, and the intake of water and the intake of 0.3 mM aqueous quinine solution by the rats were measured separately. The effect of the compound on the taste of SD rats was assessed based on the difference between the water intake and the aqueous quinine solution intake (FIG. 41).

[3] = system: citric acid/histamine-stimulated cough model; test: Cough efficacy assay of histamine/citric acid in guinea pigs; format: in vivo; conditions: for Cough inhibition rate vs. vehicle (%) / Mean number of coughs within 15 min: histamine/citric acid nebulization, intranasal instillation
Method: as §1, with “given histamine” for “given ATP”, “nebulization, followed by” for “nebulization, and after a few minutes, they were given”, “within 22” for “within 15”, “the histamine nebulization until the end of the observation period. For the statistics of experimental data, the” for “the citric acid nebulization. The”

[4] = Competitive suspension tests of free base crystalline forms A/B; format: physicochemical
Method: In order to confirm the thermodynamic transformation relationship between the anhydrous free base crystalline forms A and B under different temperature conditions, competitive suspension tests in n-heptane and toluene at room temperature and 50° C. were set up.

[5] = Solid state stability (XRPD and HPLC); format: physicochemical
Method: In the test, the purity, dynamic solubility and stability were tested using an Agilent 1260 high-performance liquid chromatograph, the molar ratio of salt-forming ions was tested using ion chromatography, and the analytical conditions are shown in Tables A-4 and A-5 below. [table]

[6] = Hygroscopicity by dynamic vapor sorption (DVS); format: physicochemical
Method: Dynamic vapor sorption (DVS) curves were acquired on a DVS IntrInsic from Surface Measurement Systems (SMS). The relative humidity at 25° C. was corrected with the deliquescence points of LiCl, Mg(NO3)2, and KCl.
Starting at 0% RH, the test acquired the percentage changes in mass of the samples when the humidity changed (0% RH to 95% RH to 0% RH) at a constant temperature of 25° C.

[7] = Dynamic solubility experiment at 37° C.; format: physicochemical
Method: In the test, the purity, dynamic solubility and stability were tested using an Agilent 1260 high-performance liquid chromatograph, the molar ratio of salt-forming ions was tested using ion chromatography, and the analytical conditions are shown in Tables A-4 and A-5 below.
Solids at a feeding concentration of 10 mg/mL (calculated based on free base) were rotationally mixed with corresponding vehicles at 37° C. […] After sampling at each time point, the samples were centrifuged (at 10000 rpm) and filtered (through a 0.45 μm PTFE filter head). The HPLC concentrations and pH values of the filtrates were determined.
100.2 mg of NaCl and 50.3 mg of Triton X-100 were weighed into a 50 mL volumetric flask and then completely dissolved by addition of purified water. 816 μL of 1 M hydrochloric acid was added, and the pH was adjusted to 1.8 with 1 M hydrochloric acid or 1 M NaOH solution. The mixed solution was brought to the volume by addition of purified water.
170.5 mg of anhydrous NaH2PO4, 22.2 mg of NaOH, and 310.9 mg of NaCl were weighed into a 50 mL volumetric flask and then completely dissolved by addition of purified water. The pH was adjusted to 6.5 with 1 M hydrochloric acid or 1 M NaOH solution. The mixed solution was brought to the volume by addition of purified water. Subsequently, 55.1 mg of SIF powder was weighed into a 25 mL volumetric flask and completely dissolved with the above solution, and the mixed solution was brought to the volume.
0.21 mL of glacial acetic acid, 101.6 mg of NaOH, and 295.4 mg of NaCl were added into a 25 mL volumetric flask and then completely dissolved by addition of about 20 mL of purified water. The pH was adjusted to 5.0 with 1 M hydrochloric acid or 1 M NaOH solution. The mixed solution was brought to the volume by addition of purified water, and then 280.8 mg of SIF powder was weighed into the flask and completely dissolved.

[8] = citric acid/ATP-stimulated cough model
[9] = citric acid/histamine-stimulated cough model
[10] = 25° C./60% RH/uncovered, 1 month
[11] = 25° C./60% RH/uncovered, 1 week
[12] = 40° C./75% RH/uncovered, 1 month
[13] = 40° C./75% RH/uncovered, 1 week

Cc1cnc(-c2cc(O[C@@H](C)[C@@H](C)O)cc(C(=O)N[C@H](C)c3cnc(C(F)(F)F)nc3)c2F)s1 [Compound of formula I, 2-fluoro-5-(((2S,3R)-3-hydroxybutan-2-yl)oxy)-3-(5-methylthiazol-2-yl)-N—((R)-1-(2-(trifluoromethyl)pyrimidin-5-yl)ethyl)benzamide]
AUC(0-t) [1]: 15000 ng·h/mL
Cmax [1]: 3380 ng/mL
Tmax [1]: 0.5 h
half-life [1]: 2.89 h
pharmacokinetic properties compared to the control compounds 1 and 2 ([1]; mouse model): certain improvements in their pharmacokinetic properties
Cough inhibition rate vs. vehicle (%) [2]: 68.2%
Mean number of coughs within 15 min [2]: 6.3
cough latency [2, 8]: prolonged the cough latency
number of coughs compared to control compound 1 [2, 8]: significantly reduced the number of coughs
Water/aqueous quinine solution intake ratio (taste of SD rats): 29.4
cough latency [3, 9]: prolonged the cough latency
number of coughs compared to control compound 1 [3, 9]: significantly reduced the number of coughs
Cough inhibition rate vs. vehicle (%) [3]: 66.5%
Mean number of coughs within 15 min [3]: 8.9

Cc1cnc(-c2cc(O[C@@H]3CCOC3)cc(C(=O)N[C@H](C)c3cnc(C(F)(F)F)nc3)c2)s1 [Control compound 1, reference compound]
AUC(0-t) [1]: 5200 ng·h/mL
Cmax [1]: 1250 ng/mL
Tmax [1]: 0.5 h
half-life [1]: 2.41 h
Cough inhibition rate vs. vehicle (%) [2]: 59.1%
Mean number of coughs within 15 min [2]: 8.1
Cough inhibition rate vs. vehicle (%) [3]: 57.1%
Mean number of coughs within 15 min [3]: 11.4

Cc1cnc(-c2cc(O[C@@H](C)[C@@H](C)O)cc(C(=O)N[C@H](C)c3cnc(C(F)(F)F)nc3)c2F)s1 [Free base crystalline form A, 2-fluoro-5-(((2S,3R)-3-hydroxybutan-2-yl)oxy)-3-(5-methylthiazol-2-yl)-N—((R)-1-(2-(trifluoromethyl)pyrimidin-5-yl)ethyl)benzamide]
thermodynamic stability of the crystalline form ([4]; room temperature and 50° C.): thermodynamically stable crystalline form
HPLC Purity (area %) [5, 10]: 99.33 area %
HPLC purity Relative to starting (%) [5, 10]: 99.96%
HPLC Purity (area %) [5, 11]: 99.38 area %
HPLC purity Relative to starting (%) [5, 11]: 100.01%
HPLC Purity (area %) [5, 12]: 99.43 area %
HPLC purity Relative to starting (%) [5, 12]: 100.06%
HPLC Purity (area %) [5, 13]: 99.51 area %
HPLC purity Relative to starting (%) [5, 13]: 100.14%
change of HPLC purity after placement under the corresponding conditions ([5]; 60° C. sealed 1 day, 25° C./60% RH and 40° C./75% RH uncovered 1 week/1 month): no significant change
HPLC Purity (area %) ([5]; 60° C./sealed, 1 day): 99.44 area %
HPLC purity Relative to starting (%) ([5]; 60° C./sealed, 1 day): 100.07%
HPLC Purity (area %) ([5]; Starting): 99.37 area %
crystalline form after DVS test ([6]; 0% RH to 95% RH to 0% RH, 25° C.): remained unchanged
vapor sorption ([6]; 25° C./80% RH): about 0.91%
hygroscopicity ([6]; DVS, 25° C./80% RH): slight hygroscopicity
solubility at 4 h ([7]; FaSSIF, 37 °C, pH 6.5, fassif, thermodynamic from solid, FaSSIF, 4 h, read-out: S: solubility): 8 µg/mL (≈ 16 µM)
Crystalline form change ([7]; FaSSIF, 1 h): No
S: solubility ([7]; FaSSIF, 1 h): 10 µg/mL
pH of filtrate ([7]; FaSSIF, 1 h): 6.5
Crystalline form change ([7]; FaSSIF, 4 h): No
pH of filtrate ([7]; FaSSIF, 4 h): 6.5
Crystalline form change ([7]; FaSSIF, 24 h): No
S: solubility ([7]; FaSSIF, 24 h): 9 µg/mL
pH of filtrate ([7]; FaSSIF, 24 h): 6.5
solubility at 24 h ([7]; FeSSIF, 37 °C, pH 5, fessif, thermodynamic from solid, FeSSIF, 24 h, read-out: S: solubility): 25 µg/mL (≈ 50.2 µM)
Crystalline form change ([7]; FeSSIF, 1 h): No
S: solubility ([7]; FeSSIF, 1 h): 23 µg/mL
pH of filtrate ([7]; FeSSIF, 1 h): 5.0
Crystalline form change ([7]; FeSSIF, 4 h): No
S: solubility ([7]; FeSSIF, 4 h): 23 µg/mL
pH of filtrate ([7]; FeSSIF, 4 h): 5.0
Crystalline form change ([7]; FeSSIF, 24 h): No
pH of filtrate ([7]; FeSSIF, 24 h): 5.0
Crystalline form change ([7]; H2O, 1 h): No
S: solubility ([7]; H2O, 1 h): 3 µg/mL
pH of filtrate ([7]; H2O, 1 h): 8.8
Crystalline form change ([7]; H2O, 4 h): No
S: solubility ([7]; H2O, 4 h): 3 µg/mL
pH of filtrate ([7]; H2O, 4 h): 8.9
Crystalline form change ([7]; H2O, 24 h): No
S: solubility ([7]; H2O, 24 h): 3 µg/mL
pH of filtrate ([7]; H2O, 24 h): 9.0
crystalline form changes in the dynamic solubility tests ([7]; H2O, SGF, FaSSIF, FeSSIF): did not undergo any crystalline form changes
Crystalline form change ([7]; SGF, 1 h): No
S: solubility ([7]; SGF, 1 h): 13 µg/mL
pH of filtrate ([7]; SGF, 1 h): 1.8
Crystalline form change ([7]; SGF, 4 h): No
S: solubility ([7]; SGF, 4 h): 13 µg/mL
pH of filtrate ([7]; SGF, 4 h): 1.8
Crystalline form change ([7]; SGF, 24 h): No
S: solubility ([7]; SGF, 24 h): 12 µg/mL
pH of filtrate ([7]; SGF, 24 h): 1.8

Cc1cnc(-c2cc(O[C@@H](C)[C@@H](C)O)cc(C(=O)N[C@H](C)c3cnc(C(F)(F)F)nc3)c2F)s1 [Free base crystalline forms A + B]
Resulting crystalline form after competitive suspension ([4]; Toluene, 50° C., 2 d): Free base crystalline form A
Resulting crystalline form after competitive suspension ([4]; Toluene, RT, 5 d): Free base crystalline form A
Resulting crystalline form after competitive suspension ([4]; n-Heptane, 50° C., 2 d): Free base crystalline form A
Resulting crystalline form after competitive suspension ([4]; n-Heptane, RT, 42 d): Free base crystalline form A
